Measured values taken from patent US20220119411A1, “IMMUNOMODULATORS, COMPOSITIONS AND METHODS THEREOF” (BETTA PHARMACEUTICALS CO., LTD, priority 2018, published 2022).

Target: T1, PD-1/PD-L1 protein/protein interaction (Homo sapiens, UniProt Q9NZQ7)
T1 construct: Recombinant human PD-L1 protein (19-238) with a His-tag at the C-terminus; purchased AcroBiosystems PD1-H5229 (PD-L1); PD1-H5257 (PD-1)
Experiment: PD-1/PD-L1 homogenous time-resolved fluorescence (HTRF) binding assay
Conditions: recombinant human PD-L1 (19-238)-His 10 nM, human PD-1 (25-167)-Fc 3 nM, 25° C., PBS pH 7.4
Method: Resolved Fluorescence (HTRF) Binding Assay
The assays were conducted in a standard black 384-well polystyrene plate with a final volume of 20 μL. Inhibitors were first serially diluted in DMSO and then added to the plate wells before the addition of other reaction components. The final concentration of DMSO in the assay was 1%. The assays were carried out at 25° C. in the PBS buffer (pH 7.4) with 0.05% Tween-20 and 0.1% BSA. Recombinant human PD-L1 protein (19-238) with a His-tag at the C-terminus was purchased from AcroBiosy stems (PD1-H5229). Recombinant human PD-1 protein (25-167) with Fc tag at the C-terminus was also purchased from AcroBiosystems (PD1-H5257). PD-L1 and PD-1 proteins were diluted in the assay buffer and 10 μL was added to the plate well. Plates were centrifuged and proteins were preincubated with inhibitors for 40 min. The incubation was followed by the addition of 10 μL of HTRF detection buffer supplemented with Europium cryptate-labeled anti-human IgG (PerkinElmer-AD0212) specific for Fc and anti-His antibody conjugated to SureLight®—Allophycocyanin (APC, PerkinElmer-AD0059H). After centrifugation, the plate was incubated at 25° C. for 60 min. Before reading on a PHERAstar FS plate reader (665 nm/620 nm ratio). Final concentrations in the assay were—3 nM PD1, 10 nM PD-L1, 1 nM europium anti-human IgG and 20 nM anti-His-Allophycocyanin. IC50 determination was performed by fitting the curve of percent control activity versus the log of the inhibitor concentration using the GraphPad Prism 5.0 software.
Data obtained for the Example compounds using the PD-1/PD-L1 homogenous time-resolved fluorescence (HTRF) binding assay described in Example A is provided in Table 2.

T1 sequence (Q9NZQ7 19-238): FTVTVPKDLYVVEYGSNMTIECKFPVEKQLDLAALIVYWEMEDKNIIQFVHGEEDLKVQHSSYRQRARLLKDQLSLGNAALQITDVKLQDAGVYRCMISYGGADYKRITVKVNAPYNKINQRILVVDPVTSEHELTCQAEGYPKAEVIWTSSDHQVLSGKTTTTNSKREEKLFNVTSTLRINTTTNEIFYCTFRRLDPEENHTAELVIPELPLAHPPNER

IC50 | SMILES
25 to 100 nM | O=C(c1nc2c(o1)CN(CCO)CC2)N1CCCc2c(-c3cccc(OCCN4CCOCC4)c3)cccc21 [Example 53, (5-(2-hydroxyethyl)-4,5,6,7-tetrahydrooxazolo[5,4-c]pyridin-2-yl)(5-(3-(2-morpholinoethoxy)phenyl)-3,4-dihydroquinolin-1(2H)-yl)methanone]
100 to 200 nM | O=C(O)CCN1CCc2nc(C(=O)N3CCCc4c(-c5cccc(OCCN6CCOCC6)c5)cccc43)oc2C1 [Example 54, 3-(2-(5-(3-(2-morpholinoethoxy)phenyl)-1,2,3,4-tetrahydroquinoline-1-carbonyl)-6,7-dihydrooxazolo[5,4-c]pyridin-5(4H)-yl)propanoic acid]
25 to 100 nM | O=C(O)CN1CCc2nc(C(=O)N3CCc4c(-c5ccc6c(c5)OCCO6)cccc43)sc2C1 [Example 55, 2-(2-(4-(2,3-dihydrobenzo[b][1,4]dioxin-6-yl)indoline-1-carbonyl)-6,7-dihydrothiazolo[5,4-c]pyridin-5(4H)-yl)acetic acid]
≤ 25 nM | O=C(c1nc2c(s1)CN(CCO)CC2)N1CCc2c(-c3ccc4c(c3)OCCO4)cccc21 [Example 56, (4-(2,3-dihydrobenzo[b][1,4]dioxin-6-yl)indolin-1-yl)(5-(2-hydroxyethyl)-4,5,6,7-tetrahydrothiazolo[5,4-c]pyridin-2-yl)methanone]
≤ 25 nM | CN1CCc2nc(C(=O)N3CCc4c(-c5ccc6c(c5)OCCO6)cccc43)sc2C1 [Example 57, (4-(2,3-dihydrobenzo[b][1,4]dioxin-6-yl)indolin-1-yl)(5-methyl-4,5,6,7-tetrahydrothiazolo[5,4-c]pyridin-2-yl)methanone]
≤ 25 nM | Cc1c(Nc2nccc3cc(CN4CCCC[C@H]4C(=O)O)cnc23)cccc1-c1cccc2c1CCN2C(=O)c1nc2c(s1)CNCC2 [Example 58, (S)-1-((8-((2-methyl-3-(1-(4,5,6,7-tetrahydrothiazolo[5,4-c]pyridine-2-carbonyl)indolin-4-yl)phenyl)amino)-1,7-naphthyridin-3-yl)methyl)piperidine-2-carboxylic acid]
